Data taken from patent publication US20190262453A1, “DESIGN AND COMPOSITION OF CELL-STABILIZED PHARMACEUTICAL FORMULATIONS” (THE REGENTS OF THE UNIVERSITY OF MICHIGAN, priority 2016, published 2019).
Structures can show the parent of a compound that is named as a salt.

Experiment: pH-dependent solubility study of CFZ-HCl (Flynn approach)
Format: physicochemical
Method: Solubility Measurement Using the Flynn Approach. […] Mili-Q water (15 mL) was added to each vial ensuring that CFZ-HCl crystals were in great excess. Moreover, an appropriate amount of 0.1 M NaOH was added to each vial to set the initial equilibration pH measurements as follows: […] The set of sample containing vials was placed on a magnetic stirrer plate in a 25° C. water bath. […] The pH of the filtered sample was determine by Denver Instrument UltraBasic pH meter (Denver Instrument, Bohemia, N.Y.), after which the sample was subjected to HPLC analysis (Waters Alliance, Separations Module 2695) to determine the total solubility of the drug at the measured pH. […] The retention time for CFZ was determined to be at 4.75 min. […] Thus, in order to fit the experimental solubility-pH data curve of CFZ-HC, it was determined which one of the aforementioned solubility-pH relationships (equation 8 vs. equation 9) to use. […] Then, a value, say “y”, from the list of the computed [CFZH^+] values was set equal [CFZH+]S. By substituting “y' in place of [CFZH+]S, total solubility at the different pH values was calculated using the solubility-pH equation where the intrinsic salt is the primary solid species (equation 15). […]

solubility versus unprotonated CFZ free base (dissolved in pure water): greater solubility | pHmax (from pH-solubility profile, 25° C.): 4.5±7.11×10^−15
SMILES: CC(C)/N=c1\cc2n(-c3ccc(Cl)cc3)c3ccccc3nc-2cc1Nc1ccc(Cl)cc1 [CFZ-HCl, Clofazimine Hydrochloride]
